Measured values published in patent US11015061B2, “Phthalocyanine-based compound and uses of same” (YAMAMOTO CHEMICALS, INC., priority 2017, dated 2021).

Assays:
Type in all cases: physicochemical
[1] = Light fastness test of laminated glass; settings: xenon light 200 hours at 550 W/h, absorbance integrated 400 to 900 nm
Experimental: (§1) The phthalocyanine-based compound (Specific Example (1)-30) produced in Example 1 (0.013 g) was dissolved in 40 g of triethylene glycol-di-2-ethylhexanoate as an organic ester plasticizer. The obtained solution was added to 100 g of a polyvinyl butyral resin (trade name: BH-3, produced by SEKISUI CHEMICAL CO., LTD.), thoroughly melted and kneaded using a mixing roll, and extruded using an extruder, thereby obtaining an interlayer having a thickness of 0.76 mm.
(§2) The interlayer was cut in size of 100 mm×100 mm, interposed between heat ray absorbing glass plates (100 mm (length)×100 mm (width)×2.0 mm (thickness)) prepared based on JIS R3208, put into a rubber bag, and deaerated for 20 minutes at a degree of vacuum of 2.6 kPa. Then, the deaerated laminate was moved into an oven and further hold for 30 minutes at 90° C. to vacuum press. Thereafter, the laminate was compressed for 20 minutes in an autoclave under the condition of a temperature of 130° C. and a pressure of 1.3 MPa, thereby obtaining a laminated glass sample.
(§3) For a light fastness test, the absorption spectrum of the laminated glass was measured using a spectrophotometer (produced by Hitachi, Ltd.: Spectrophotometer U-3500) and adopted as a spectrum before light fastness test. Then, the laminated glass used for measuring the spectrum before test was irradiated with light for 200 hours at 550 W/h by using a xenon light fastness tester (produced by Toyo Seiki Seisaku-sho, Ltd.: SUNTEST XLS+). The absorption spectrum of the laminated glass irradiated with light was measured using the spectrophotometer and adopted as a spectrum after light fastness test.
(§4) In each of the spectra measured as above before and after the light fastness⋅heat resistance test, the values of absorbance within a range of 400 to 900 nm were integrated, and a difference between the integrated value before the light fastness⋅heat resistance test and the integrated value after the light fastness⋅heat resistance test was calculated.
(§5) The difference ΔE between the absorbance before the light fastness⋅heat resistance test and the absorbance after the light fastness⋅heat resistance test is expressed by the following equation. ΔE (%)={E(400 to 900 nm in E1)−E(400 to 900 nm in E2)}/E(400 to 900 nm in E1)×100
(§6) E1 represents the spectrum before test, E2 represents the spectrum after test, and Σ represents integration of values of absorbance. The larger the value of ΔE, the greater the spectrum change between before and after the light fastness⋅heat resistance test.

[2] = Absorption spectrum of toluene solution (maximum absorption, gram absorption coefficient); settings: for gram absorption coefficient: at maximum absorption
Experimental: A toluene solution of the compound obtained in this way had maximum absorption at 734.0 nm, and the gram absorption coefficient thereof was 1.21×10^5 mL/g·cm. The absorption spectrum chart thereof is illustrated in FIG. 1.

[3] = Tts (total solar transmittance) of heat ray shielding film; settings: heat ray shielding film (5 g compound, 50 g acryl resin LP-45M, 2.5 μm on PET) on 3 mm glass plate; JIS R3106
Source text: The phthalocyanine compound (Specific Example (1)-30) produced in Example 1 (5 g), 50 g of an acryl resin LP-45M (trade name, produced by Soken Chemical & Engineering Co., Ltd.), 20 g of methyl ethyl ketone, and 20 g of toluene were mixed and stirred together, thereby producing a resin composition.
As a transparent substrate, a polyethylene terephthalate film (PET film) having a thickness of 100 μm was bar-coated with the resin composition such that the thickness thereof became 2.5 μm, and then the applied resin composition was dried for 3 minutes at 100° C. Furthermore, the other surface of the PET film (surface not being coated with the resin composition) was bar-coated with a transparent acryl copolymer-based pressure sensitive adhesive such that the thickness thereof became 20 μm, and the applied pressure sensitive adhesive was dried and cured for 3 minutes at 100° C. Thereafter, a release film was bonded to the surface of the pressure sensitive adhesive, thereby producing a heat ray shielding film.
(§7) In the evaluation test, the release film was peeled from the produced heat ray shielding film, then the heat ray shielding film was compressed on a 5 cm×5 cm×3 mm (thickness) glass plate, and a test piece created in this way was used.
By using U-3500 type recording spectrophotometer produced by Hitachi, Ltd. as a measurement instrument, Tts of the laminated glass sample was measured based on JIS R3106 “Testing method for transmittance, reflectance, emissivity, and solar heat gain coefficient of flat glasses”.
Tts (Total solar energy transmitted through a glazing) represents a total solar transmittance.

[4] = Heat resistance test of laminated glass; settings: 200 hours at 100° C., absorbance integrated 400 to 900 nm
Experimental: as §1, §2
(§8) For a heat resistance test, the laminated glass used for measuring the spectrum before test as described above was treated with heat for 200 hours at a temperature of 100° C. in a thermostat (produced by Yamato Scientific co., ltd.: IG400). By using the spectrophotometer, the absorption spectrum of the heat-treated laminated glass was measured and adopted as a spectrum after heat resistance test.
as §4, §5, §6

[5] = Light fastness test of heat ray shielding film; settings: xenon light 200 hours at 550 W/h, absorbance integrated 400 to 900 nm
Experimental: as §7
as §3, with “test piece” for “laminated glass”
as §4, §5
(§9) E1 represents the spectrum before test, E2 represents the spectrum after test, and Σ represents integration of the values of absorbance.
(§10) The larger the value of ΔE, the greater the spectrum change between before and after the light fastness⋅heat resistance test.

[6] = Heat resistance test of heat ray shielding film; settings: 200 hours at 100° C., absorbance integrated 400 to 900 nm
Experimental: as §7
as §8, with “test piece” for “laminated glass”
as §4, §5, §9, §10

[7] = Visible light transmittance of laminated glass sample; settings: 380 to 780 nm, JIS R3212
Experimental: as §1, §2
By using U-3500 type recording spectrophotometer produced by Hitachi, Ltd. as a measurement instrument, the visible light transmittance of the laminated glass samples at a wavelength of 380 to 780 nm was measured based on JIS R3212 “Test methods of safety glazing materials for road vehicles”.

ΔE (%) Light fastness [1] | maximum absorption [2] | gram absorption coefficient [2] | Tts [3] | ΔE (%) Heat resistance [4] | ΔE (%) Light fastness [5] | ΔE (%) Heat resistance [6] | Visible light transmittance [7] | Compound
33% | 733.0 nm | 130000 mL/g/cm | 89.5% | 35% | 33% | 31% | 75% | COCc1ccc(COC)c2c1-c1nc-2nc2[n-]c(nc3nc(nc4[n-]c(n1)c1c(COC)ccc(COC)c41)-c1c(COC)ccc(COC)c1-3)c1c(COC)ccc(COC)c21.[O]=[V+2] [Comparative Example Compound (a), reference compound]
5% | 734.0 nm | 121000 mL/g/cm | 86.1% | 6% | 5% | 6% | 78.1% | COCCCCc1ccc(CCCCOC)c2c1-c1nc-2nc2[n-]c(nc3nc(nc4[n-]c(n1)c1c(CCCCOC)ccc(CCCCOC)c41)-c1c(CCCCOC)ccc(CCCCOC)c1-3)c1c(CCCCOC)ccc(CCCCOC)c21.[O]=[V+2] [Specific Example (1)-30]
3% | 705.5 nm | 78900 mL/g/cm | 86% | 2% | 3% | 3% | 77.7% | COCCCCc1ccc(CCCCOC)c2c1-c1nc-2nc2[n-]c(nc3nc(nc4[n-]c(n1)c1c(CCCCOC)ccc(CCCCOC)c41)-c1c(CCCCOC)ccc(CCCCOC)c1-3)c1c(CCCCOC)ccc(CCCCOC)c21.[Cu+2] [Specific Example (1)-31]
2% | 734.0 nm | 119000 mL/g/cm | 85.8% | 3% | 3% | 2% | 77.5% | CCOCCCCc1ccc(CCCCOCC)c2c1-c1nc-2nc2[n-]c(nc3nc(nc4[n-]c(n1)c1c(CCCCOCC)ccc(CCCCOCC)c41)-c1c(CCCCOCC)ccc(CCCCOCC)c1-3)c1c(CCCCOCC)ccc(CCCCOCC)c21.[O]=[V+2] [Specific Example (1)-33]
3% | 735.5 nm | 86300 mL/g/cm | 85.5% | 3% | 5% | 3% | 77.9% | [O]=[V+2].c1ccc(OCCCCc2ccc(CCCCOc3ccccc3)c3c2-c2nc-3nc3[n-]c(nc4nc(nc5[n-]c(n2)c2c(CCCCOc6ccccc6)ccc(CCCCOc6ccccc6)c52)-c2c(CCCCOc5ccccc5)ccc(CCCCOc5ccccc5)c2-4)c2c(CCCCOc4ccccc4)ccc(CCCCOc4ccccc4)c32)cc1 [Specific Example (1)-37]
4% | 735.0 nm | 71600 mL/g/cm | 85.8% | 2% | 5% | 3% | 77.8% | [O]=[V+2].c1ccc(OCCOCCCCc2ccc(CCCCOCCOc3ccccc3)c3c2-c2nc-3nc3[n-]c(nc4nc(nc5[n-]c(n2)c2c(CCCCOCCOc6ccccc6)ccc(CCCCOCCOc6ccccc6)c52)-c2c(CCCCOCCOc5ccccc5)ccc(CCCCOCCOc5ccccc5)c2-4)c2c(CCCCOCCOc4ccccc4)ccc(CCCCOCCOc4ccccc4)c32)cc1 [Specific Example (1)-38]
4% | 735.5 nm | 74000 mL/g/cm | 85.9% | 3% | 4% | 3% | 78% | COc1cccc(OCCCCc2ccc(CCCCOc3cccc(OC)c3)c3c2-c2nc-3nc3[n-]c(nc4nc(nc5[n-]c(n2)c2c(CCCCOc6cccc(OC)c6)ccc(CCCCOc6cccc(OC)c6)c52)-c2c(CCCCOc5cccc(OC)c5)ccc(CCCCOc5cccc(OC)c5)c2-4)c2c(CCCCOc4cccc(OC)c4)ccc(CCCCOc4cccc(OC)c4)c32)c1.[O]=[V+2] [Specific Example (1)-39]
2% | 706.5 nm | 67800 mL/g/cm | 85.9% | 2% | 2% | 3% | 77.9% | COc1cccc(OCCCCc2ccc(CCCCOc3cccc(OC)c3)c3c2-c2nc-3nc3[n-]c(nc4nc(nc5[n-]c(n2)c2c(CCCCOc6cccc(OC)c6)ccc(CCCCOc6cccc(OC)c6)c52)-c2c(CCCCOc5cccc(OC)c5)ccc(CCCCOc5cccc(OC)c5)c2-4)c2c(CCCCOc4cccc(OC)c4)ccc(CCCCOc4cccc(OC)c4)c32)c1.[Cu+2] [Specific Example (1)-40]
2% | 734.5 nm | 71000 mL/g/cm | 86% | 3% | 4% | 4% | 77.7% | CC(C)(C)c1ccc(OCCCCc2ccc(CCCCOc3ccc(C(C)(C)C)cc3)c3c2-c2nc-3nc3[n-]c(nc4nc(nc5[n-]c(n2)c2c(CCCCOc6ccc(C(C)(C)C)cc6)ccc(CCCCOc6ccc(C(C)(C)C)cc6)c52)-c2c(CCCCOc5ccc(C(C)(C)C)cc5)ccc(CCCCOc5ccc(C(C)(C)C)cc5)c2-4)c2c(CCCCOc4ccc(C(C)(C)C)cc4)ccc(CCCCOc4ccc(C(C)(C)C)cc4)c32)cc1.[O]=[V+2] [Specific Example (1)-42]
